Assay results from patent publication US8609609B2, “Peptides and methods of use as therapeutics and screening agents” (North Carolina State University, priority 2008, dated 2013).
No end group written: not given here.

How the values were obtained:
unmodified ASL^LYS3 = assay: Fluorescence titration of fluorescein-conjugated peptides with unmodified ASL^LYS3; format: binding; details: fluorescein-conjugated peptide titrated with unmodified ASL^LYS3
Excerpt: (§1) The sequences of the target ASLLys3 and that of control ASLs are shown. Peptides were selected against the ASLLys3 and tested against all three. The ASL^LYS3 contains the natural modified nucleosides, 5-methoxycarbonylmethyl-2-thiouridine-34 (mcm5s2U34), 2-methylthio-N6-threonylcarbamoyladenosine-37 (ms2t6A37), and pseudouridine-39 (Ψ39).
(§2) Peptides were selected by phage display methods to bind to the modified ASL^LYS3. Control peptides were selected for their lack of recognition. Each peptide is synthesized with a conjugated fluorescein as a reporter. Here control peptide #21 is titrated with the three ASLs and the fluorescence is monitored.
Peptides #6 and #17 were selected by phage display methods to bind to the modified ASL^LYS3. These peptides along with control peptide #21 were synthesized with a conjugated fluorescein as a reporter. Here the three peptides are titrated with the unmodified ASL^LYS3 and the fluorescence is monitored.

[1] = system: fully modified human tRNA^LYS3 anticodon stem and loop domain (modified ASL^LYS3); assay: Fluorescence titration of fluorescein-conjugated peptides with modified ASL^LYS3; format: binding; details: for binding to the modified ASL^LYS3 (fluorescence monitored): fluorescein-conjugated peptide titrated with modified ASL^LYS3; for specific recognition of the modifications of the ASLLys3: comparison of titration with modified and with unmodified ASL^LYS3
Excerpt: as §1, §2
Peptides #6 and #17 were selected by phage display methods to bind to the modified ASL^LYS3. These peptides along with control peptide #21 were synthesized with a conjugated fluorescein as a reporter. Here the three peptides are titrated with the modified ASLLys3 and the fluorescence is monitored.

Feline (FEA) cells = assay: Shear-loading of feline (FEA) cells with fluorescein-conjugated peptide: fluorescence microscopy and toxicity staining; format: cell-based; details: after 1, 2 and 3 days, at the concentrations used for loading
Excerpt: Feline (FEA) cells are “shear-loaded” with the peptide #6 that binds the modified ASLLys3. Fluorescein-conjugated, peptide #6 is located with fluorescence microscopy First row: Sham loaded cells. Second row: Peptide loaded. Third row: Peptide loaded at 40× magnification.

[2] = system: equine infectious anemia virus (EIAV); assay: Reverse transcriptase activity in EIAV infected feline (FEA) cells shear-loaded with peptide; format: cell-based
Procedure: (§3) EIAV is a lentivirus as is HIV, and as such utilizes the host cell tRNA^LYS3 for priming reverse transcription. EIAV infected feline (FEA) cells are “shear-loaded” with three concentrations (5, 10, 35) of peptide #6 that binds the modified ASL^LYS3 portion of HIV primer. Cells are sham loaded with phosphate buffered saline (PBS). The effect of the peptide on reverse transcriptase activity and on toxicity are determined after 1, 2 and 3 days.

[3] = system: EIAV infected feline (FEA) cells; assay: Toxicity by staining in EIAV infected feline (FEA) cells shear-loaded with peptide; format: cell-based
Procedure: as §3

| Sequence | binding to the unmodified ASL^LYS3 (fluorescence monitored) (unmodified ASL^LYS3) | binding to the modified ASL^LYS3 (fluorescence monitored) [1] | toxicity, determined by staining (Feline (FEA) cells) | specific recognition of the modifications of the ASLLys3 [1] | reverse transcriptase activity ([2]; EIAV infected FEA cells loaded with fluorescein-conjugated peptide, three concentrations (5, 10, 35), versus PBS sham loaded) | bioactivity in cells against reverse transcription ([2]; EIAV infected FEA cells, at days 2 and 3) | toxicity (staining of the cells) ([3]; high concentration) | toxicity (staining of the cells) ([3]; low and middle concentrations) |
| --- | --- | --- | --- | --- | --- | --- | --- | --- |
| NGPECNAYMVRCRGYH (cysteine pairing not given here; also: fluorescein label, position not given here) [compound 17] | do not exhibit binding | bind | – | – | – | – | – | – |
| PAVASTSSLIIDGPF (also: fluorescein label, position not given here) [peptide #6] | do not exhibit binding | bind | not toxic | specifically recognizing the modifications | significantly reduced | significant bioactivity | only slightly toxic | not toxic |
| PKAFQYGGRAVGGLW (hASL LYS3 binding peptide) [compound 7] | – | – | – | specifically recognizing the modifications | – | – | – | – |
